Laboratory results: US11969428B2, “Methods and pharmaceutical compositions for treating lymphoid malignancy” (priority 2011, dated 2024)

How the values were obtained:
PI3Kα = PI3Kα isoform selective cell-based assay (PDGF-stimulated SW3T3 cells, P-Akt); conditions: compared to pan-PI3K/mTOR inhibitor BEZ235
Procedure: For the analysis of p110α-mediated signaling, SW3T3 cells were placed in serum free media (3 hours) and incubated with either CAL-130 or the Pan-PI3K/mTor inhibitor BEZ235 (Selleck Chemicals) for 1 hour prior to stimulation with PDGF (10 ng/ml; Cell Signaling) for 10 minutes at 37° C. After washing once in cold phosphate-buffered saline (PBS), the cell pellet was resuspended in lysis buffer (50 mM HEPES [N-2-hydroxyethylpiperazine-N-2-ethanesulfonic acid], pH 7.4, 150 mM NaCl, 10% glycerol, 1% Triton X-100, 1.5 mM MgCl2, 1 mM EGTA [ethylene glycol tetraacetic acid], 100 mM NaF, 1 mM phenylmethylsulfonyl fluoride, 1 mM NaVO4, 1 μg/ml leupeptin, and 1 μg/ml aprotinin) for 15 minutes on ice. Whole-cell lysates were obtained by centrifugation, and the soluble protein analyzed by Western blotting for Akt and P-Akt levels. Quantification was done using the Li-COR Odyssey imaging system.

MLCK = target: T1, MLCK (Homo sapiens, UniProt Q32MK0); assay: Ambit KinomeScan screening; assay type: binding; conditions: CAL-130 10 μM
T1 construct: unspecified tag ('tagged kinases'); purchased Ambit (KinomeScan screening)
Summary of the method: (§1)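 Tagged kinases are exposed to an immobilized bait ligand with CAL-130 (10 μM) present. Kinase binding to the bait is then quantified relative to control. Results are given as % of control, where over 35% is scored as no hit.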

PIP5K2B = target: T2, PIP5K2B (Homo sapiens, UniProt P78356); assay: Ambit KinomeScan screening; assay type: binding; conditions: CAL-130 10 μM
T2 construct: unspecified tag; purchased Ambit (KinomeScan screening panel)
Summary of the method: as §1

YES = target: T3, YES (Homo sapiens, UniProt P07947); assay: Ambit KinomeScan screening; assay type: binding; conditions: CAL-130 10 μM
T3 construct: purchased Ambit (KinomeScan screening service)
Summary of the method: as §1

PLK2 = target: T4, PLK2 (Homo sapiens, UniProt Q9NYY3); assay: Ambit KinomeScan screening; assay type: binding; conditions: CAL-130 10 μM
T4 construct: purchased Ambit (KinomeScan screening service)
Summary of the method: as §1

EGFR(G719S) = target: T5, EGFR(G719S) (Homo sapiens, UniProt P00533, G719S); assay: Ambit KinomeScan screening; assay type: binding; conditions: CAL-130 10 μM
T5 construct: unspecified tag; purchased Ambit (KinomeScan screening service)
Summary of the method: as §1

SIK = target: T6, SIK (Homo sapiens, UniProt P57059); assay: Ambit KinomeScan screening; assay type: binding; conditions: CAL-130 10 μM
T6 construct: tag, kind not specified; purchased Ambit (KinomeScan screening service)
Summary of the method: as §1

RIOK1 = target: T7, RIOK1 (Homo sapiens, UniProt Q9BRS2); assay: Ambit KinomeScan screening; assay type: binding; conditions: CAL-130 10 μM
T7 construct: unspecified tag (tagged kinase); purchased Ambit (KinomeScan screening)
Summary of the method: as §1

DDR1 = target: T8, DDR1 (Homo sapiens, UniProt Q08345); assay: Ambit KinomeScan screening; assay type: binding; conditions: CAL-130 10 μM
T8 construct: unspecified tag ("tagged kinases"); purchased Ambit (KinomeScan screening service)
Summary of the method: as §1

NDR1 = target: T9, NDR1 (Homo sapiens, UniProt Q15208); assay: Ambit KinomeScan screening; assay type: binding; conditions: CAL-130 10 μM
T9 construct: unspecified tag; purchased Ambit (KinomeScan screening panel)
Summary of the method: as §1

FLT4 = target: T10, FLT4 (Homo sapiens, UniProt P35916); assay: Ambit KinomeScan screening; assay type: binding; conditions: CAL-130 10 μM
T10 construct: unspecified tag ('tagged kinases'); purchased Ambit (KinomeScan screening service)
Summary of the method: as §1

ACVRL1 = target: T11, ACVRL1 (Homo sapiens, UniProt P37023); assay: Ambit KinomeScan screening; assay type: binding; conditions: CAL-130 10 μM
T11 construct: purchased Ambit (KinomeScan screening)
Summary of the method: as §1

LCK = target: T12, LCK (Homo sapiens, UniProt P06239); assay: Ambit KinomeScan screening; assay type: binding; conditions: CAL-130 10 μM
T12 construct: unspecified tag ('tagged kinases'); purchased Ambit (KinomeScan screening service)
Summary of the method: as §1

CHEK2 = target: T13, CHEK2 (Homo sapiens, UniProt O96017); assay: Ambit KinomeScan screening; assay type: binding; conditions: CAL-130 10 μM
T13 construct: purchased Ambit (KinomeScan screening service)
Summary of the method: as §1

CAMK2A = target: T14, CAMK2A (Homo sapiens, UniProt Q9UQM7); assay: Ambit KinomeScan screening; assay type: binding; conditions: CAL-130 10 μM
T14 construct: unspecified tag ("tagged kinases"); purchased Ambit (KinomeScan screening)
Summary of the method: as §1

JNK2 = target: T15, JNK2 (Homo sapiens, UniProt P45984); assay: Ambit KinomeScan screening; assay type: binding; conditions: CAL-130 10 μM
T15 construct: purchased Ambit (KinomeScan screening)
Summary of the method: as §1

TNIK = target: T16, TNIK (Homo sapiens, UniProt Q9UKE5); assay: Ambit KinomeScan screening; assay type: binding; conditions: CAL-130 10 μM
T16 construct: unspecified tag (tagged kinase); purchased Ambit (KinomeScan screening)
Summary of the method: as §1

LATS1 = target: T17, LATS1 (Homo sapiens, UniProt O95835); assay: Ambit KinomeScan screening; assay type: binding; conditions: CAL-130 10 μM
T17 construct: unspecified tag ('tagged kinases'); purchased Ambit (KinomeScan screening service)
Summary of the method: as §1

YSK1 = target: T18, YSK1 (Homo sapiens, UniProt O00506); assay: Ambit KinomeScan screening; assay type: binding; conditions: CAL-130 10 μM
T18 construct: purchased Ambit (KinomeScan screening service)
Summary of the method: as §1

CCRF-CEM xenografts = assay: Subcutaneous CCRF-CEM (CEM-luc) xenograft, bioluminescence; assay type: in vivo, mouse; conditions: 10 mg kg−1 every 8 hours for 4 days
Procedure: For subcutaneous xenograft experiments, luminescent CCRF-CEM (CEM-luc) cells were generated by lentiviral infection with FUW-luc and selection with neomycin. Luciferase expression was verified with the Dual-Luciferase Reporter Assay kit (Promega Corp., Madison, WI). […] After 1 week, mice were treated by oral gavage with vehicle (0.5% methyl cellulose, 0.1% Tween-80), or CAL-130 (10 mg kg^−1) (Gilead Sciences, Foster City, CA) every 8 hours daily for 4 days and then tumors imaged as follows: mice anesthetized by isoflurane inhalation were injected intraperitoneally with D-luciferin (50 mg kg^−1, Xenogen, Calipers Life Sciences, Hopkinton, MA). Photonic emission was imaged with the In Vivo Imaging System (IVIS, Xenogen). Tumor bioluminescence was quantified by integrating the photonic flux (photons per second) through a region encircling each tumor using the LIVING IMAGES software package (Xenogen).
In the former, luciferase expressing CCRF-CEM cells were injected into the flanks of immunodeficient mice and allowed to grow for 1 week before administering vehicle control or inhibitor (10 mg kg^−1 every 8 hours) for a total of 4 days. In the latter, treatment commenced 3 days post-injection of tumor cells for a total of 7 days. […]

T17 sequence (O95835 whole entry): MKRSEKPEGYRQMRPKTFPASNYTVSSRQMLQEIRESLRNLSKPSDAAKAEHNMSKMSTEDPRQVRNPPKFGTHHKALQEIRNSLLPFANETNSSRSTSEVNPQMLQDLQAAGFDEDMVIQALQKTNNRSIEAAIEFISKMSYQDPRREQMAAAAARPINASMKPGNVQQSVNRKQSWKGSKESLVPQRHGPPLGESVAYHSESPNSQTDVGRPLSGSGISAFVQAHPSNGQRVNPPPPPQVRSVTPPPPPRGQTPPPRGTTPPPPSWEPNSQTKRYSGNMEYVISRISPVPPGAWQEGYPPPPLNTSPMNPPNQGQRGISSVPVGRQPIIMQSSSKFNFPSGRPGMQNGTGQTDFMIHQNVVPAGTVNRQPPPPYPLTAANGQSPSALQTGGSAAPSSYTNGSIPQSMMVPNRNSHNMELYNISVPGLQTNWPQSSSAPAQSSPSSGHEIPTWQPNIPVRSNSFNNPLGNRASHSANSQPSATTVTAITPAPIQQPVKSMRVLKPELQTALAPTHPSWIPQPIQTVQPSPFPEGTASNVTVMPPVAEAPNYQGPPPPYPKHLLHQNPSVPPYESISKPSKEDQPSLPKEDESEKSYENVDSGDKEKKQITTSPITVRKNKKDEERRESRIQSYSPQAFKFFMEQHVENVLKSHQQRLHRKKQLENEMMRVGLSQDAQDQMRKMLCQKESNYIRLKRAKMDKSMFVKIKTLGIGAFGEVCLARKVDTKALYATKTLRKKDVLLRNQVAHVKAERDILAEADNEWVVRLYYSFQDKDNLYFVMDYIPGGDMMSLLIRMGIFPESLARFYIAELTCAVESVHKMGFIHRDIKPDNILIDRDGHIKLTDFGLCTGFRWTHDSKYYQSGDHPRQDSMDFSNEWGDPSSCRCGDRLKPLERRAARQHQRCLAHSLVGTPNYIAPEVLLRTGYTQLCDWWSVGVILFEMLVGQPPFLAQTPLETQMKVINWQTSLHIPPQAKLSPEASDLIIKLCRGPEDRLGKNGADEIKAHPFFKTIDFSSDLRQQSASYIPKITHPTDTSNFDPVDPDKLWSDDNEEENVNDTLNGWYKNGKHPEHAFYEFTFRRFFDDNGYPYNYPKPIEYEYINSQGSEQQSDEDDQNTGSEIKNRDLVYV
T10 sequence (P35916 25-1363): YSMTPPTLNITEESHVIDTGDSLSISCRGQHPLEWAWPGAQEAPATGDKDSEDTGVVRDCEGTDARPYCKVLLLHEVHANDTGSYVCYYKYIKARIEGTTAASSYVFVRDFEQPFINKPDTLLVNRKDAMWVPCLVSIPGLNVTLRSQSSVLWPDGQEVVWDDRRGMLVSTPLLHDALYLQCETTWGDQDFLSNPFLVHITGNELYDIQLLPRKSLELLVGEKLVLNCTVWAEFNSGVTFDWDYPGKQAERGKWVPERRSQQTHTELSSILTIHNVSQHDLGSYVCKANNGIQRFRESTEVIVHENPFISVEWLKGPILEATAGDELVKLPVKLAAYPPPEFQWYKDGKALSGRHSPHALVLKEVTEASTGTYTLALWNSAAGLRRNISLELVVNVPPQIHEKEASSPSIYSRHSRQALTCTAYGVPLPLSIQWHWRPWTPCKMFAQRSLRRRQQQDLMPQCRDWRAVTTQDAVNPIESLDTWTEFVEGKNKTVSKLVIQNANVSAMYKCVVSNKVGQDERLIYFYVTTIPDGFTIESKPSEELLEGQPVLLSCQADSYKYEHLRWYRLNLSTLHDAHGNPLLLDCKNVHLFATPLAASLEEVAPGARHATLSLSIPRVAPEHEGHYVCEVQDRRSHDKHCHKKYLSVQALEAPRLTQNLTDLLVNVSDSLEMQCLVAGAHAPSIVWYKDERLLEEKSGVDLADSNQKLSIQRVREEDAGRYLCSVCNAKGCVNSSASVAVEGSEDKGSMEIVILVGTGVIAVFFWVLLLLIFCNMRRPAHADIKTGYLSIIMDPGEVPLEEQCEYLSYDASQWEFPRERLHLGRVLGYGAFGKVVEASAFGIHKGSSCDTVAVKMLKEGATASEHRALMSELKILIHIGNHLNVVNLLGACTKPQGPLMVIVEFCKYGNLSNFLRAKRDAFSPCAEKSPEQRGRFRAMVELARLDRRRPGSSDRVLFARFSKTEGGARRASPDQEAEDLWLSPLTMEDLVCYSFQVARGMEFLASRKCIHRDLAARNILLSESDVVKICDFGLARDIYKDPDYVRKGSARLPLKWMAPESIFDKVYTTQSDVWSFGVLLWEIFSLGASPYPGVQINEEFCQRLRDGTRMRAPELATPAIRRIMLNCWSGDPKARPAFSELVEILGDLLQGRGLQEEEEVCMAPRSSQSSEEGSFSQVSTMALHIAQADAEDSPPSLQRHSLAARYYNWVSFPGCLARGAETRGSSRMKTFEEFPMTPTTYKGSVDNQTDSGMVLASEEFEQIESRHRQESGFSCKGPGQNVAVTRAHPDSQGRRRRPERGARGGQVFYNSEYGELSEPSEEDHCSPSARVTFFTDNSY
T16 sequence (Q9UKE5 whole entry): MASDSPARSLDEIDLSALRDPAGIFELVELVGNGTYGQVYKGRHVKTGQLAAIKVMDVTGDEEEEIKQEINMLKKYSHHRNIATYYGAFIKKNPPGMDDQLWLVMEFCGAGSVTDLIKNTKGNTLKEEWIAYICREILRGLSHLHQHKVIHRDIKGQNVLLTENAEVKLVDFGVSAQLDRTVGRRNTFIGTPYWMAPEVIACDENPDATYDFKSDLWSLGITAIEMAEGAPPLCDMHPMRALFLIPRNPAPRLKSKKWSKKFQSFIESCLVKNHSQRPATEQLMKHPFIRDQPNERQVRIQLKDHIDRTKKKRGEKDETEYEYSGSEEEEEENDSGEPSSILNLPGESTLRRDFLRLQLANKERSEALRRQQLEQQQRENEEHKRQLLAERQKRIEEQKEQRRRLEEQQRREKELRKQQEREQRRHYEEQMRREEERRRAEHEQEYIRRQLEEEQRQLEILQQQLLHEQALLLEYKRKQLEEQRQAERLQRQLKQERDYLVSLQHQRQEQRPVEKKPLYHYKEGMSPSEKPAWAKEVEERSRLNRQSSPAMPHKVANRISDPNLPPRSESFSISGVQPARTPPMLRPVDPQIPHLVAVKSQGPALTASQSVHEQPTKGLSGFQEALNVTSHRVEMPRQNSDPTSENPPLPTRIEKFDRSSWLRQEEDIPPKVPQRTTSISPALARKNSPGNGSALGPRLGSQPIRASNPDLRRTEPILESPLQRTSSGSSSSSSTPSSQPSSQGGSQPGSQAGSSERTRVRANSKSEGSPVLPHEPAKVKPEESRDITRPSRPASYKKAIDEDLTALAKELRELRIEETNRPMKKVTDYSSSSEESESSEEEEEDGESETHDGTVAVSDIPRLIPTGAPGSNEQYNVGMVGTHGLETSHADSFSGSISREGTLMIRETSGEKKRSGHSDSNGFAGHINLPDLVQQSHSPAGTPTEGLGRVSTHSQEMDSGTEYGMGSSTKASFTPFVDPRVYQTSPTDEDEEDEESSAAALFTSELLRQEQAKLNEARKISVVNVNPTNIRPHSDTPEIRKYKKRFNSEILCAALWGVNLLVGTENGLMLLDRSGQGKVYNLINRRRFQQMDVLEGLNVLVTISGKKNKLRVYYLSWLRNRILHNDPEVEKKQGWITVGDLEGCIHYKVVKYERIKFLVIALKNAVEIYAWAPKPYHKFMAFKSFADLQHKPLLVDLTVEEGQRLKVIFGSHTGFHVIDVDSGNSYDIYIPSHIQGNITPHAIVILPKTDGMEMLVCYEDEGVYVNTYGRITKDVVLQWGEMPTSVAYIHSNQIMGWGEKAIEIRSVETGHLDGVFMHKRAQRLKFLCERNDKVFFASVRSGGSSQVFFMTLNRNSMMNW
T2 sequence (P78356 whole entry): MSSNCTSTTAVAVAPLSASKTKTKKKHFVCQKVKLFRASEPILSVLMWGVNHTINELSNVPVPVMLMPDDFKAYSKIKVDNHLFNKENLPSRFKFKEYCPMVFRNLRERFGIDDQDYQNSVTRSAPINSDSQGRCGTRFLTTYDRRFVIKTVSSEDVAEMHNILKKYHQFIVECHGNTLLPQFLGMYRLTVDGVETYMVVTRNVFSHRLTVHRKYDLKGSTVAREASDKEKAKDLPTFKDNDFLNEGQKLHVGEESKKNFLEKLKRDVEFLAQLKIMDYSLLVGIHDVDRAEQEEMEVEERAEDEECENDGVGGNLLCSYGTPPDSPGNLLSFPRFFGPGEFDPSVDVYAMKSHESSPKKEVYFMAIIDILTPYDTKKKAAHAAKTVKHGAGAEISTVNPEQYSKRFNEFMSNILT
T18 sequence (O00506 whole entry): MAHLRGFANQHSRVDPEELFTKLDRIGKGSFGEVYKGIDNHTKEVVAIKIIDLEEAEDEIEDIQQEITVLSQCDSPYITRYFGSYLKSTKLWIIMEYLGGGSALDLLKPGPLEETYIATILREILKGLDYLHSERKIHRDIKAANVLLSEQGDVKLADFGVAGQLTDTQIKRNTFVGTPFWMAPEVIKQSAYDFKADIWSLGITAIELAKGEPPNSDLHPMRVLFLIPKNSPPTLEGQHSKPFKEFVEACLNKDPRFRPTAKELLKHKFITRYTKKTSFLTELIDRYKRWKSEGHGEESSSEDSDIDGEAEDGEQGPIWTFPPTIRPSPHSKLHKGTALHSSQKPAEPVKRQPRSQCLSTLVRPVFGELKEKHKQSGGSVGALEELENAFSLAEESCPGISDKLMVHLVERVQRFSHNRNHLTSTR
T15 sequence (P45984 whole entry): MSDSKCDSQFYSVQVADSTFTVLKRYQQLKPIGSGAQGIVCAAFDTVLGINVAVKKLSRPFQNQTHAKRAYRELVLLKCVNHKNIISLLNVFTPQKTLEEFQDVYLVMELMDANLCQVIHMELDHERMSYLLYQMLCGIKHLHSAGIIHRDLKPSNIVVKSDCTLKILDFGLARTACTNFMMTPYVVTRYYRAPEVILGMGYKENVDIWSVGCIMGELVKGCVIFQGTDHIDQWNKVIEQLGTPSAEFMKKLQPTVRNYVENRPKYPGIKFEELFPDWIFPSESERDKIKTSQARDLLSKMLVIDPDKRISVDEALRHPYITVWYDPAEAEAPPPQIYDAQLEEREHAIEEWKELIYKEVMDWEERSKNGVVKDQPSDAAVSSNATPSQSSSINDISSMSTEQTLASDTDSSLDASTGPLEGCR
Procedure for PTEN null T-ALL: Mice deficient for PTEN in the T cell lineage were generated by crossing Lck-cre with floxed Pten (Hennet et al., 1995; Trotman et al., 2003).
Mice received an oral dose (10 mg kg^−1) of the inhibitor every 8 hours for a period of 7 days and were then followed until moribund.
Pten^fl/fl mice were crossed with a strain in which a luciferase cDNA, preceded by a LoxP-stop-LoxP cassette, was introduced into the ubiquitously expressed ROSA26 locus (Safran et al., 2003). Progeny were then crossed with Lck-cre transgenics to delete Pten in T cell progenitors and induce expression of luciferase (Lck/Pten^fl/fl; Gt(ROSA)26Sor^tm1(Luc)Kael/J).

With `Cc1ccccc1-n1c(C(C)Nc2nc(N)nc3nc[nH]c23)nc2cccc(C)c2c1=O` (centres unmarked) [CAL-130] as the molecule, how does the “PDGF-induced activation of PI3Kα (Akt phosphorylation)” value (PI3Kα) read?
The value was “limited ability to impair”.

What about the “weights of thymi, liver, spleen, and kidneys versus vehicle control” value (PTEN null T-ALL; 7 days treatment) of the same molecule?
Its value is “significantly less”.

And the median survival (PTEN null T-ALL; Lck/Pten fl/fl mice with T-ALL, oral 10 mg kg−1 every 8 hours for 7 days)?
The median survival was 45 days.

And the WBC (PTEN null T-ALL; Lck/Pten fl/fl mice, by day 4)?
The WBC was “dramatic reduction”.

What about the “apoptosis (sub-G0 population after PI staining)” value (PTEN null T-ALL; Lck/Pten fl/fl mice, days 4 through 7) of the same molecule?
Its value is “increase in apoptosis”.

What about the bioluminescent signals (PTEN null T-ALL; Lck/Pten fl/fl;Gt(ROSA)26Sor luciferase mice, day 4 of treatment) of the same molecule?
The bioluminescent signals was “dramatically lower”.

What about the “peripheral blood T-ALL cells” value (PTEN null T-ALL; diseased Lck/Pten fl/fl mice, within hours of treatment (data not shown)) of the same molecule?
Its value is “dramatic and sustained reduction”.

And the “Percent of Control Binding” value (MLCK)?
Its value is 100%.

What about the “Percent of Control Binding” value (PIP5K2B) of the same molecule?
The value was 100%.

What about the “Percent of Control Binding” value (YES) of the same molecule?
Its value is 100%.

And the “Percent of Control Binding” value (PLK2)?
The value was 100%.

And the “Percent of Control Binding” value (EGFR(G719S))?
The value was 100%.

What about the “Percent of Control Binding” value (SIK) of the same molecule?
The value was 100%.

What about the “Percent of Control Binding” value (RIOK1) of the same molecule?
The value was 100%.

What about the “Percent of Control Binding” value (DDR1) of the same molecule?
The value was 100%.

And the “Percent of Control Binding” value (NDR1)?
Its value is 100%.

And the “Percent of Control Binding” value (FLT4)?
The value was 100%.

And the “Percent of Control Binding” value (ACVRL1)?
Its value is 100%.

What about the “Percent of Control Binding” value (LCK) of the same molecule?
Its value is 100%.

What about the “Percent of Control Binding” value (CHEK2) of the same molecule?
The value was 100%.

And the “Percent of Control Binding” value (CAMK2A)?
The value was 100%.

What about the “Percent of Control Binding” value (JNK2) of the same molecule?
Its value is 100%.

What about the “Percent of Control Binding” value (TNIK) of the same molecule?
Its value is 100%.

What about the “Percent of Control Binding” value (LATS1) of the same molecule?
Its value is 100%.

What about the “Percent of Control Binding” value (YSK1) of the same molecule?
The value was 100%.

What about the “difference in luminescence, treated versus vehicle control” value (CCRF-CEM xenografts) of the same molecule?
Its value is 5 fold.
